Test results reported in paper PMC9763021, “Comprehensive Assessment of Biomolecular Interactions of Morpholine-Based Mixed Ligand Cu(II) and Zn(II) Complexes of 2,2′-Bipyridine as Potential Anticancer and SARS-CoV-2 Agents: A Synergistic Experimental and Structure-Based Virtual Screening” (Bioinorganic Chemistry and Applications, 2022).

Columns and labels:
Candida albicans = assay: Agar disc diffusion, strain I; format: cell-based; design: (inhibition %): concentration or dose not given beside the values; settings: for diameter of the clear zone inhibition: control = 6 mm
Description: (§1) In-vitro antimicrobial properties were evaluated for all samples by the agar disc diffusion method towards different fungal and bacterial strains. Additionally, the reported inhibition zone values were comparatively analyzed with the standard antifungal drugs ketoconazole and amphotericin B as well as the standard antibiotic medications streptomycin and amikacin.
(§2) The current research has a curious focus on the in vitro antimicrobial properties of biological systems because these studies are crucial for developing effective antibacterial and antifungal medications. […] It can also be spelled out based on the chelation theory proposed by Overtone and Tweedy. Chelation theory points out that the partial exchanging of the positive charge of the metal center with donor moieties, and overlap of the ligand orbitals will reduce the greater degree of the metal ion's polarity, which ultimately rises the delocalization of π and d electrons over the full chelated ring system. By raising the size of the metal ion due to the retarding of polarization, chelation may also enhance the complexes' lipophilic characteristics, which further stimulate the lipid membrane permeability and break down the bacteria' enzymes responsible for cell wall formation, therefore slowing down the regular cell processes. By preventing the production of cell walls/proteins/DNA, including by obstructing folate metabolism and the cytoplasmic membrane, antimicrobial drugs frequently either fully eliminate microbes or only prevent their cell growth. Additionally, the samples' mode of action may be employed in disrupting the cell's respiration process by forming an H-bond during the morpholine-fused iminic group coordinated with the active metal center of its components, inhibiting proliferation of the cell. […] The difference in the antimicrobial efficacy of some of the compounds towards various microorganisms influences on the impermeability of the cells of the germs or the diversity of ribosomes of the microbes. The % of the inhibition of all substances is estimated from (45) (Table 9).
(§3) (A, B, C, D, and E are represented as gram negative bacteria species Escherichia coli, Salmonella enteric serovar typhi, Salmonella enteric serovar typhi, Pseudomonas aeruginosa, and Shigella flexneri, respectively. F & G are denoted as gram positive bacteria species Staphylococcus aureus and Bacillus cereus. H, I, and J are represented as fungal strains Aspergillus niger, Candida albicans, and Mucor indicus. Standard drugs for bacterial strains: Amikacin & Streptomycin Standard drugs for fungal strains: Ketoconazole and Amphotericin B. [Control (DMSO) = 6 mm].(44) Inhibition %=T–C/T×100, where T and C are represented as the diameter of microbial growth of the sample plates and the control plate (6 mm), respectively. Error limits ±2.5–5.0% (P ≤ 0.05).

CT-DNA = assay: DNA thermal denaturation (biothermodynamic properties); format: binding, calf thymus; settings: for Tm (K) / Tm °C of DNA-compound adduct: 260 nm, [DNA]/[Complex] = 1; for Tm °C of DNA-compound adduct: CT-DNA alone 68°C; for ΔH°: Van't Hoff equation; for ΔTm °C: versus free DNA (68°C); for ΔG°: −R.Tm.lnKm
Description: Thermal denaturation characteristics were executed by a UV-visible spectrophotometer in a temperature-controlled sample container in both the presence and absence of the substances. In a Tris-HCl buffer solution with a pH of 7.4, all substances were incubated with CT-DNA in a 1 : 1 ratio. Temperature increases of two degrees Celsius per minute were applied to test substances in the range of 25 to 100°C, and the changes in absorbance at 260 nm were carefully scrutinized.
DNA denaturation contributes to the root cause of several chronic diseases, hereditary disorders, and a reduction in the ability of DNA repair to work properly. The biothermodynamic properties were further supported to determine the ability of stabilization of the double-standard DNA, and it offers details on the structural alterations, the degree of the DNA-compound system, the external binding-mediated neutralization of phosphate charges on DNA, and the stacking interactions, all of which work together to raise the DNA's melting point. […] The Van't Hoff (9) and Gibbs Helmholtz equations (10) were supportive in evaluating the biothermodynamic parameters, which are enclosed in Table 2. […] The influencing factors between test compounds and DNA mostly depend on the type of interaction mode. Because of the driving forces, H-bonds, weak Van der Waals forces, and electrostatic modes of binding all occur while the enthalpy is favourable. Hydrophobic forces induce binding while entropy is favourable; on the other hand, the loss of structural degrees of freedom leads to undesirable entropic changes. As per Ross and colleagues, the findings for ΔH° and ΔS° can alternatively be derived in the following favourable sequence. If ΔH° > 0 and ΔS° > 0, this attributes intercalation due to hydrophobic forces of attraction. If ∆H° < 0 and ΔS° < 0, this involves weak Van der Waals forces of attraction and H-bonding interactions. On the other hand, if ΔH° < 0 (or), ΔH°≈0 and ∆S° > 0, this indicates the electrostatic mode of binding possible between DNA and compounds [28, 68]. […] Furthermore, it is widely acknowledged that the hydration and generation of the compound-deoxyribonucleic acid adduct system via the counter ion liberating mechanism are highly dependent on the hydrophobic forces of attraction.

Staphylococcus aureus = assay: Agar disc diffusion, strain F; format: cell-based; design: (inhibition %): concentration or dose not given beside the values; settings: for diameter of the clear zone inhibition: control = 6 mm
Description: as §1, §2, §3

[1] = Superoxide scavenging assay; format: biochemical; settings: for % Inhibition superoxide: 590 nm
Description: (§4) All samples were evaluated for their scavenging ability with the help of UV-visible spectrophotometer at different concentrations of 40, 80, 120, 160, 200, and 240 μM [6, 28]. While performing the antioxidant properties for the DPPH, hydroxyl, superoxide, and nitric oxide radical scavenging, the absorbance at 517, 230, 590, and 546 nm, respectively, was closely observed. In addition, the observed IC50 values of all samples were compared with ascorbic acid.
A vital enzyme catalyst in the body's defence against free radicals, superoxide dismutase (SOD) quickly and efficiently reduces toxicity and cellular damage by exchanging superoxide with water (or) harmless molecules. The % of inhibition for all substances was analyzed at 590 nm. The outcomes were obtained in the subsequent order: (ascorbic acid) 84.85 > (1a) 67.17 > (2a) 58.18 > (HL) 50.42.

[2] = test system: Salmonella enteric serovar typhi; assay: Agar disc diffusion, strain C; format: cell-based; settings: for diameter of the clear zone inhibition: control = 6 mm
Description: as §1, §2, §3

Mucor indicus = assay: Agar disc diffusion, strain J; format: cell-based; design: (inhibition %): concentration or dose not given beside the values; settings: for diameter of the clear zone inhibition: control = 6 mm
Description: as §1, §2, §3

[3] = Hydroxyl radical scavenging assay; format: biochemical; settings: for % Inhibition hydroxyl radical: 230 nm
Description: as §4
Hydrogen peroxide receives electrons from antioxidant molecules and then neutralizes them into a water molecule. ^●OH inhibition capability was determined from the % of inhibition for all test substances at 230 nm.

Escherichia coli = assay: Agar disc diffusion, strain A; format: cell-based; design: (inhibition %): concentration or dose not given beside the values; settings: for (inhibition %): (T–C)/T×100; for diameter of the clear zone inhibition: control (DMSO) = 6 mm
Description: as §1, §2, §3

Row | SMILES | (inhibition %) (Candida albicans) [%] | diameter of the clear zone inhibition (Candida albicans) [mm] | ΔS° (CT-DNA) | Tm (K) (CT-DNA) | Tm °C of DNA-compound adduct (CT-DNA) [°C] | Binding constant Kr at 298 K (CT-DNA) | ΔH° (CT-DNA) | ΔTm °C (CT-DNA) [°C] | ΔG° (CT-DNA) | (inhibition %) (Staphylococcus aureus) [%] | diameter of the clear zone inhibition (Staphylococcus aureus) [mm] | % Inhibition superoxide ([1]; 40 µM) [%] | % Inhibition superoxide ([1]; 80 µM) [%] | % Inhibition superoxide ([1]; 120 µM) [%] | % Inhibition superoxide ([1]; 160 µM) [%] | % Inhibition superoxide ([1]; 200 µM) [%] | % Inhibition superoxide ([1]; 240 µM) [%] | (inhibition %) [2] [%] | diameter of the clear zone inhibition [2] [mm] | (inhibition %) (Mucor indicus) [%] | other results
1 | [Cu+2].[O-]c1ccccc1N=Cc1ccc(N2CCOCC2)cc1.[O-]c1ccccc1N=Cc1ccc(N2CCOCC2)cc1.c1ccc(-c2ccccn2)nc1 [(1a), [Cu(L)2(bpy)]] | 50 | 12 | –6.9577 cal mol^–1 | 353 | 80 | 1.9000 × 10^4 M^–1 | –7.9071 kcal mol^–1 | 12 | –5.4511 kcal mol^–1 | 50 | 12 | 08.32 | 16.45 | 31.86 | 47.69 | 60.03 | 67.17 | 50 | 12 | 50 | IC50 [1]: 200 µM; diameter of the clear zone inhibition (Mucor indicus): 12 mm; IC50 [3]: 200 µM; % Inhibition hydroxyl radical ([3]; 40 µM): 09.16%; % Inhibition hydroxyl radical ([3]; 80 µM): 18.23%; % Inhibition hydroxyl radical ([3]; 120 µM): 32.22%; % Inhibition hydroxyl radical ([3]; 160 µM): 40.12%; % Inhibition hydroxyl radical ([3]; 200 µM): 51.14%; % Inhibition hydroxyl radical ([3]; 240 µM): 61.10%; (inhibition %) (Escherichia coli): 54%; diameter of the clear zone inhibition (Escherichia coli): 13 mm
2 | Oc1ccccc1N=Cc1ccc(N2CCOCC2)cc1 [(HL), 2-(4-morpholinobenzylideneamino)phenol] | 40 | 10 | –13.7851 cal mol^–1 | 347 | 74 | 1.5169 × 10^4 M^–1 | –9.8083 kcal mol^–1 | 6 | –5.0249 kcal mol^–1 | 33 | 09 | 05.23 | 10.74 | 18.85 | 33.55 | 40.91 | 50.42 | 45 | 11 | 45 | diameter of the clear zone inhibition (Mucor indicus): 11 mm; % Inhibition hydroxyl radical ([3]; 40 µM): 07.26%; % Inhibition hydroxyl radical ([3]; 80 µM): 14.43%; % Inhibition hydroxyl radical ([3]; 120 µM): 25.52%; % Inhibition hydroxyl radical ([3]; 160 µM): 33.86%; % Inhibition hydroxyl radical ([3]; 200 µM): 40.73%; % Inhibition hydroxyl radical ([3]; 240 µM): 50.68%; (inhibition %) (Escherichia coli): 33%; diameter of the clear zone inhibition (Escherichia coli): 09 mm
3 | [O-]c1ccccc1N=Cc1ccc(N2CCOCC2)cc1.[O-]c1ccccc1N=Cc1ccc(N2CCOCC2)cc1.[Zn+2].c1ccc(-c2ccccn2)nc1 [(2a), [Zn(L)2(bpy)]] | 54 | 13 | –8.4501 cal mol^–1 | 351 | 78 | 1.8287 × 10^4 M^–1 | –8.3292 kcal mol^–1 | 10 | –5.3632 kcal mol^–1 | 45 | 11 | 06.32 | 12.67 | 24.14 | 40.20 | 51.92 | 58.18 | 33 | 09 | 60 | diameter of the clear zone inhibition (Mucor indicus): 15 mm; % Inhibition hydroxyl radical ([3]; 40 µM): 08.25%; % Inhibition hydroxyl radical ([3]; 80 µM): 16.86%; % Inhibition hydroxyl radical ([3]; 120 µM): 25.78%; % Inhibition hydroxyl radical ([3]; 160 µM): 34.66%; % Inhibition hydroxyl radical ([3]; 200 µM): 45.78%; % Inhibition hydroxyl radical ([3]; 240 µM): 56.14%; (inhibition %) (Escherichia coli): 50%; diameter of the clear zone inhibition (Escherichia coli): 12 mm
